One data set is described as follows: in vitro. The following applies: human; for Papp A→B at 2 h, 10 µM / Papp B→A at 2 h, 10 µM / efflux ratio at 2 h, 10 µM: Caco-2. Put shortly: (§1)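 Caco-2 monolayers dosed with 10 μM compound on apical or basolateral side; permeation measured on opposite side for A→B and B→A directions. Sampling at 1 and 2 h; permeability expressed as 10-6 cm s-1 from dQ/dt and initial concentration C0, with recovery.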
A general note: Passage across Caco-2 layers is used to estimate intestinal permeability.

For the next data set, the system named is Caco-2 cells. As to the kind of experiment: Caco-2 permeability. As to conditions: for recovery: human, 10 μM. Summed up:
as §1

Data set [1] concerns the target SPase activity in M. tuberculosis H37Rv cell membrane fractions (Mycobacterium tuberculosis, UniProt P9WKA1). Briefly: Inhibition of secretion (SPase activity) in membrane fractions. As to conditions: fluorogenic peptide substrate 2 μM; 4 h, 37 °C. Type of data set: biochemical.
Data set [2] can be described thus: Plasma protein binding (Rapid Equilibrium Dialysis). Type of data set: in vitro ADME, human. The following applies: human; for fraction unbound at 4 h, 5 µM: plasma. As for the experimental part:
Molecule fraction fraction Post-Assay
Table S5. Plasma protein binding
Protein binding was measured in human plasma using Rapid Equilibrium Dialysis (RED) devices (Pierce) according to the manufacturers’ instructions; 5 µM compounds in plasma were dialysed against PBS for 4 h at 37C. Compounds were detected by LC-MS/MS in plasma and PBS
A general note: In equilibrium dialysis only unbound substance equilibrates across the membrane.

Data set [3] has as its system nonreplicating M. tuberculosis. Briefly: Kill kinetics, nonreplicating (nutrient starved) bacteria. Type of data set: cell-based, Mycobacterium tuberculosis. As to conditions: nutrient starvation, PBS-tyloxapol.
Data set [4] relates to M. tuberculosis wild-type strain. Briefly: MIC against wild-type M. tuberculosis. The following applies: concentration required to inhibit growth by 90%, 5 days culture. Type of data set: cell-based, Mycobacterium tuberculosis.
The subject of data set [5] is M. tuberculosis strain under expressing LepB (LepB-UE). Briefly: microbe, parasite or virus in culture. It is filed as cell-based, Mycobacterium tuberculosis.
The mark [6] stands for this setting: Mean plasma fraction Unbound Fuplasma.

Values after ≈ are worked out from the molar mass of the structure shown.

The record followed here is PMC9927457 (Microbiology Spectrum, 2023).

Chain of SPase activity in M. tuberculosis H37Rv cell membrane fractions (P9WKA1 whole entry): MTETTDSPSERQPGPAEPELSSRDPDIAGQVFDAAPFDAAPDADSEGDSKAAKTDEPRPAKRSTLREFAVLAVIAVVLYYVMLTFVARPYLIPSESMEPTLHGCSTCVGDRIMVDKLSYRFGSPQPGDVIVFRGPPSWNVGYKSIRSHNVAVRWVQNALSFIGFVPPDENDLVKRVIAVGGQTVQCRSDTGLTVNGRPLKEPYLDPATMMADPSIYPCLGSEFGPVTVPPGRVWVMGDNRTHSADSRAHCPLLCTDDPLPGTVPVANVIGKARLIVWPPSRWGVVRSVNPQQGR

The Papp A→B is the apparent permeability from the apical to the basolateral side of a cell layer. Lower therefore signals slow passage. Broadly, the Papp B→A is the apparent permeability from the basolateral to the apical side of a cell layer. A word on the efflux ratio: it is a quotient of directional permeabilities that is used to spot active efflux. A word on the IC50: it is the concentration that inhibits the measured activity by half. The fraction unbound is free concentration divided by total concentration. Higher therefore signals weak binding. `CCCCNC(=S)Nc1nc2ccccc2s1` [Molecule 1, 1-(benzo[d]thiazol-2-yl)-3-butylthiourea] came in with an apical-to-basolateral permeability (Papp A→B) at 2 h, 10 µM in “in vitro” of 1.4 ×10⁻⁶ cm/s. The molecule also displayed a Papp B→A at 2 h, 10 µM in “in vitro” of 2.5 ×10⁻⁶ cm/s. The efflux ratio at 2 h, 10 µM in “in vitro” was 1.7. For the same molecule, the “dQ/dt (rate of permeation), mean” value in the data set with Caco-2 cells (A→B, assay duration 1 hr) is listed as 9.7E-06; in the data set on Caco-2 cells (A→B, assay duration 2 hr) it was 2.1E-05; with Caco-2 cells (B→A, assay duration 1 hr) it was 2.4E-05; in the data set on Caco-2 cells (B→A, assay duration 2 hr), 3.8E-05. Also, in data set [1], the IC50 is over 200 µM. In data set [2], this molecule returned a recovery at 4 h, 5 µM of 84.3%. The unbound share (fraction unbound) at 4 h, 5 µM in data set [2] (Mean plasma fraction Bound) and in data set [2] (setting [6]) was 0.001 each time. Further, the “concentration giving sterilization of nonreplicating organisms” value in data set [3] was found to be 20 µM.
With `CCCCNC(=S)Nc1nc(C)co1` [Molecule 21, 1-butyl-3-(4-methyloxazol-2-yl)thiourea], the apical-to-basolateral permeability (Papp A→B) at 2 h, 10 µM in the data set “in vitro” worked out at 21 ×10⁻⁶ cm/s. Further, in “in vitro”, the Papp B→A at 2 h, 10 µM is 19 ×10⁻⁶ cm/s. Also, the efflux ratio at 2 h, 10 µM in “in vitro” amounted to 0.89. Moreover, the recovery at 1 h, 10 μM in “in vitro” (Caco-2, recovery) turned out to be 59%. In addition, in the data set “in vitro” (Caco-2, recovery), the recovery at 2 h, 10 μM came out at 56%. For the same molecule, the “dQ/dt (rate of permeation), mean” value with Caco-2 cells (A→B, assay duration 1 hr) is listed as 4.2E-04; in the data set on Caco-2 cells (A→B, assay duration 2 hr), 3.0E-04; in the data set on Caco-2 cells (B→A, assay duration 1 hr), 3.8E-04; with Caco-2 cells (B→A, assay duration 2 hr), 2.8E-04. Further, the recovery was 77% with Caco-2 cells (Caco-2, 1 h) and 67% with Caco-2 cells (Caco-2, 2 h). For the same molecule, the MIC in data set [4] (Mycobacterium tuberculosis, 120 h, read-out: MIC Wild type) was 10 µM (≈ 2.13 µg/mL); in data set [5] (Mycobacterium tuberculosis, 120 h), 8 to 9 µM (≈ 1.71 to 1.92 µg/mL). In addition, the “MIC Wild type” value in data set [4] stood at 10 ± 2.0 µM (≈ 2.13 µg/mL). The molecule further yielded a recovery at 4 h, 5 µM in data set [2] of 83.9%. Also, the fraction unbound at 4 h, 5 µM in data set [2] (Mean plasma fraction Bound) and in data set [2] (setting [6]) was 0.037 each time. The “MIC LepB-UE” value in data set [5] came to 8.4 ± 3.4 µM (≈ 1.79 µg/mL).
